In series [1] the target is T1, Carnitine O-palmitoyltransferase 1, muscle isoform (Homo sapiens, UniProt Q92523).
T1 sequence (Q92523 whole entry): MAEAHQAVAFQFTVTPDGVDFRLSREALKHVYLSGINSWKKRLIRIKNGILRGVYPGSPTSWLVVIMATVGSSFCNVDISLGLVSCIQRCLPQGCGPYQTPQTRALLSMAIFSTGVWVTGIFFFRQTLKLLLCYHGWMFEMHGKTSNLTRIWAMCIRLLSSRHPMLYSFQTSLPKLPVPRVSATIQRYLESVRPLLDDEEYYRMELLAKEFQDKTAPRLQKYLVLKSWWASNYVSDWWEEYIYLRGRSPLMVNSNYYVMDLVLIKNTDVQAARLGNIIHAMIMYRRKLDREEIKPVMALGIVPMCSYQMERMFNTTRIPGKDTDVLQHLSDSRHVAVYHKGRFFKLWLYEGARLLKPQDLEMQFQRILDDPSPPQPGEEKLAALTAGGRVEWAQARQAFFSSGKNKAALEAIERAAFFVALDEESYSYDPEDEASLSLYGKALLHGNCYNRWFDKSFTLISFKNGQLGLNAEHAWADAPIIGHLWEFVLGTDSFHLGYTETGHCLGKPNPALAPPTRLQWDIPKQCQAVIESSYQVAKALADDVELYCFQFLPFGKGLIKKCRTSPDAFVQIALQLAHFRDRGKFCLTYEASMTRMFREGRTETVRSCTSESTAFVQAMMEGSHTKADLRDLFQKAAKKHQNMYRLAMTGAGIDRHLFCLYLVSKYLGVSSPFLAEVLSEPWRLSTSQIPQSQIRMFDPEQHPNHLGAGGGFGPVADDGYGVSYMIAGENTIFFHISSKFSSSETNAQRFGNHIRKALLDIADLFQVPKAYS
Kind of series: SUPPLEMENTARY: Inhibition of Carnitine palmitoyltransferase 1, muscle isoform. Details: species or system Muscle tissue.

In series [2] the target is T2, Carnitine O-palmitoyltransferase 2, mitochondrial (Homo sapiens, UniProt P23786).
T2 sequence (P23786 whole entry): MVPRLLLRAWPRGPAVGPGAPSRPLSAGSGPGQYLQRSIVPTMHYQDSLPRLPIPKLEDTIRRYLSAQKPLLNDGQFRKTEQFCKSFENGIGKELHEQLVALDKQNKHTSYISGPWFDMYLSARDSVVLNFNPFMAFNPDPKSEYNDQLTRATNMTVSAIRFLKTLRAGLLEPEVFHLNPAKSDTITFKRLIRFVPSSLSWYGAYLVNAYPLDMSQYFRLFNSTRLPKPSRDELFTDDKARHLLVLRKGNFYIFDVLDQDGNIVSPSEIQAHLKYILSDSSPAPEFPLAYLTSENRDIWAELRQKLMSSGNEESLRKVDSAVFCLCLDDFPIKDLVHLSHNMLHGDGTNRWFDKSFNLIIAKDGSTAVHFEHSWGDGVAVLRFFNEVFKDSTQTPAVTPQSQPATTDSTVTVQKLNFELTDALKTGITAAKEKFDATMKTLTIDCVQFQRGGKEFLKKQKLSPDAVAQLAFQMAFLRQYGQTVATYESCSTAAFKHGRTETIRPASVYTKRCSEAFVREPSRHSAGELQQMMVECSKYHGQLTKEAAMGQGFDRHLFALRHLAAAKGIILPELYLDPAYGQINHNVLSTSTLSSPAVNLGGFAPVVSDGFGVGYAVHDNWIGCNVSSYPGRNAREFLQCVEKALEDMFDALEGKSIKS
Kind of series: (§1) SUPPLEMENTARY: Inhibition of Carnitine palmitoyltransferase 2.

In series [3] the target is T3, Carnitine O-palmitoyltransferase 2, mitochondrial (Rattus norvegicus, UniProt P18886).
T3 sequence (P18886 whole entry): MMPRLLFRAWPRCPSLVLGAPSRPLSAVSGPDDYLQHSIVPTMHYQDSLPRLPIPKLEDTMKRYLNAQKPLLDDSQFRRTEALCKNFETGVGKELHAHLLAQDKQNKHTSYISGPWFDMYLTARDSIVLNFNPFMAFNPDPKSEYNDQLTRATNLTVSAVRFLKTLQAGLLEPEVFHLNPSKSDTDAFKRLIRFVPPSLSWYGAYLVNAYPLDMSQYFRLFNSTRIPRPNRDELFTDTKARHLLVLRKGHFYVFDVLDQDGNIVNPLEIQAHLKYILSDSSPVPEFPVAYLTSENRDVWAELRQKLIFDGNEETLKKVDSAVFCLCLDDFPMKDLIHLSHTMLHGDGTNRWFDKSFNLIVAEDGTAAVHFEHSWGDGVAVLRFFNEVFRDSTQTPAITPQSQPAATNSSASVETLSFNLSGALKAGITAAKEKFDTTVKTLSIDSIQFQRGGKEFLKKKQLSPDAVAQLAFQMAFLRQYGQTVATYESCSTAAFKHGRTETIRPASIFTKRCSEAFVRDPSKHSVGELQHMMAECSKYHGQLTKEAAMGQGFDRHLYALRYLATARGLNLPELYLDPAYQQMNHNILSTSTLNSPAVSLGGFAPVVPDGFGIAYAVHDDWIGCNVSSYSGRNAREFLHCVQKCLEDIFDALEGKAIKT
The series is described as §1.

Series [4] deals with T4, Carnitine O-palmitoyltransferase 1, liver isoform (Homo sapiens, UniProt P50416).
T4 sequence (P50416 whole entry): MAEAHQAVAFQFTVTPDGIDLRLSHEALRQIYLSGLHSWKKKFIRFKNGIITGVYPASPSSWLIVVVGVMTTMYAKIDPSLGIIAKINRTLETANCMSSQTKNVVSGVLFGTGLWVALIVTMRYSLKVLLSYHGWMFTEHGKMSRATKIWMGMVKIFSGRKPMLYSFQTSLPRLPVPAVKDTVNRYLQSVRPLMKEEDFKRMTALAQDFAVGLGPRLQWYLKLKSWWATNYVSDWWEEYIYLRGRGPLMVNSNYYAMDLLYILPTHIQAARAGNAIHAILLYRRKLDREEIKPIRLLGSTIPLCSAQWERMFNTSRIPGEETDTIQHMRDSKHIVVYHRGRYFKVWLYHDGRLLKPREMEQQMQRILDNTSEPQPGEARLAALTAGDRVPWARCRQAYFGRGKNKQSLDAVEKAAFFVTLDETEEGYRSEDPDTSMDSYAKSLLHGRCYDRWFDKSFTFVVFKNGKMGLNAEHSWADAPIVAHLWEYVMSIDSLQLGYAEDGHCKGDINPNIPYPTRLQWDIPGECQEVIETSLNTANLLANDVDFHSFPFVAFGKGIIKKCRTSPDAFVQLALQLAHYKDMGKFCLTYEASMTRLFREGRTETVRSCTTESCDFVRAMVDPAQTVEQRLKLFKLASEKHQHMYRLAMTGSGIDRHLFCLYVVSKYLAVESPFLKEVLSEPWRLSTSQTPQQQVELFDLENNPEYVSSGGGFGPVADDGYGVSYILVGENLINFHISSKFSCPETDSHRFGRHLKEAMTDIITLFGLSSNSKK
Kind of series: (§2) SUPPLEMENTARY: Inhibition of Carnitine palmitoyltransferase 1, liver isoform.

In series [5] the target is T5, Carnitine O-palmitoyltransferase 1, liver isoform (Rattus norvegicus, UniProt P32198).
T5 sequence (P32198 whole entry): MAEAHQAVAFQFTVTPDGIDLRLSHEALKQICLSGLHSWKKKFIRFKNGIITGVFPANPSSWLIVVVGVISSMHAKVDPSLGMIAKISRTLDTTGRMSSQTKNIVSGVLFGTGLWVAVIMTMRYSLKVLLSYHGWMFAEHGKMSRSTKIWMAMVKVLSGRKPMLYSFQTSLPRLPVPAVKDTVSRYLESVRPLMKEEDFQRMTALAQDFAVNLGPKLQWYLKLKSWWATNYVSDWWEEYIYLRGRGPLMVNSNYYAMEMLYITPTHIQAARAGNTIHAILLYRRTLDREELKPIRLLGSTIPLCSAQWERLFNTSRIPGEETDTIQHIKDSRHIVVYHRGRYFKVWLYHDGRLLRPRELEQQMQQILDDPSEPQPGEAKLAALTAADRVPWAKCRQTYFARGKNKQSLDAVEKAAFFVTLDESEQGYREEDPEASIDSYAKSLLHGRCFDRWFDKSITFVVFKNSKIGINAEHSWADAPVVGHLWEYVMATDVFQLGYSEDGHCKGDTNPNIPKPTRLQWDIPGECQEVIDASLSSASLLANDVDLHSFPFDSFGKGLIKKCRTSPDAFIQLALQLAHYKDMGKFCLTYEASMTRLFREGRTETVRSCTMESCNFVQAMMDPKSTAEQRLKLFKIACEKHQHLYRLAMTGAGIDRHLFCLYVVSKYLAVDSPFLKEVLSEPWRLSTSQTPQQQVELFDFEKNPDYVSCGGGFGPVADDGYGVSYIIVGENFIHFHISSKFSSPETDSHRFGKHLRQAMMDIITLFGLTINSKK
Described as §2.

Series [6] is described as follows: SUPPLEMENTARY: Lyophilisation Solubility Assay (LYSA). In kind it is physicochemical. To be noted: read-out: Kinetic_solubility.
Series [7] in a line: SUPPLEMENTARY: Lipophilicity (log D) Determination by high-throughput shake-flask. In kind it is physicochemical. To be noted: octanol/water.
Series [8] is described as follows: SUPPLEMENTARY: PAMPA permeability assay. Type of series: physicochemical. As to conditions: read-out: Permeability. A general note: In PAMPA a lipid-coated filter parts donor from acceptor wells.

pIC50: −log10 of the molar value. ≈ marks a conversion by molar mass, not a printed value. Some results are limits rather than exact numbers.

In general, pIC50 refers to −log10 of the IC50, conventionally taken in molar units. High values mean a low IC50, low ones a high IC50. A word on the logD: it is lipophilicity at a set pH, counting ionised and neutral species.

For the molecule `N#Cc1cccc(-c2n[nH]c([C@H]3CCCCN3C(=O)COc3ccccc3)n2)c1`, the pIC50 in series [1] was under 4.00; in series [2], 4.53; in series [3] it was 4.47; in series [4] it was 6.79; in series [5], 6.66. Besides, the solubility kinetic in series [6] came to 31 µg/mL (≈ 80 µM). The molecule also showed a logD in series [7] of 2.98. Besides, in series [8], the Papp is 2.96 ×10⁻⁶ cm/s.
Consider `COc1ccc(Cl)cc1S(=O)(=O)N1CCOc2ccc(C(=O)Nc3ccc(C(=O)O)c(F)c3)cc21`, for which the negative logarithm of the IC50 (pIC50) in series [1] was 5.74; in series [2], 5.20; in series [3] it was 4.63; in series [4] it was 7.19; in series [5], 7.09. Moreover, the solubility kinetic in series [6] stood at 15 µg/mL (≈ 28.8 µM). The molecule also returned a logD in series [7] of 0.29. Further, the Papp in series [8] came out at 1.71 ×10⁻⁶ cm/s.
With `COc1ccc(Cl)cc1S(=O)(=O)N1CCOc2ccc(C(=O)Nc3ccc(C(=O)O)c(Cl)c3)cc21`, the pIC50 in series [1] was 5.45; in series [2], 5.29; in series [3], 4.68; in series [4], 6.61; in series [5] it was 7.00. The solubility kinetic in series [6] was over 716 µg/mL. This molecule came in with a logD in series [7] of 0.12. Also, the Papp in series [8] worked out at 1.45 ×10⁻⁶ cm/s.
On to `COc1ccc(Cl)cc1S(=O)(=O)N1CCc2ccc(C#Cc3ccc(C(=O)O)cc3)cc21`, for which the pIC50 in series [1] was 4.09; in series [2], under 4.00; in series [3], under 4.00; in series [4], 6.95; in series [5] it was 6.95. For the same molecule, the solubility kinetic in series [6] was under 1 µg/mL. The molecule further gave a log distribution coefficient (logD) in series [7] of 3.3. The Papp in series [8] turned out to be 0.26 ×10⁻⁶ cm/s.
With `COc1ccc(Cl)cc1S(=O)(=O)N1CCOc2ccc(C(=O)Nc3ccc(C(=O)O)nc3)cc21`, the pIC50 in series [1] was 4.65; in series [2] it was 5.26; in series [3], 4.61; in series [4], 6.63; in series [5], 6.24. Besides, the solubility kinetic in series [6] is 195 µg/mL (≈ 387 µM). In addition, the pH-dependent lipophilicity (logD) in series [7] was -0.42. Further, in series [8], the Papp came to 0.57 ×10⁻⁶ cm/s.
In the case of `CCC(=O)Nc1cccc(-c2n[nH]c([C@H]3CCCCN3C(=O)COc3ccccc3)n2)c1`, the negative logarithm of the IC50 (pIC50) is under 4.00 in series [1]; 4.18 in series [2]; 4.12 in series [3]; 7.45 in series [4]; 6.48 in series [5]. In series [6], the solubility kinetic was found to be 56 µg/mL (≈ 129 µM). Besides, the logD in series [7] is 2.96. The Papp in series [8] worked out at 2.89 ×10⁻⁶ cm/s.
As for `CC(C)C(=O)Nc1cccc(-c2n[nH]c([C@H]3CCCCN3C(=O)COc3ccccc3)n2)c1`, the negative-log IC50 (pIC50) in series [1] was under 4.00; in series [2], 4.44; in series [3] it was 4.62; in series [4] it was 7.14; in series [5], 6.16. The solubility kinetic in series [6] was 29 µg/mL (≈ 64.8 µM). In series [7], this molecule yielded a pH-dependent lipophilicity (logD) of 3.32. Also, in series [8], the Papp stood at 2.6 ×10⁻⁶ cm/s.
As for `CC(=O)Nc1cccc(-c2nc([C@H]3CCCCN3C(=O)COc3ccccc3)no2)c1`, the negative logarithm of the IC50 (pIC50) in series [1] was under 4.00; in series [2], 4.14; in series [3], under 4.00; in series [4], 7.36; in series [5] it was 6.98. In addition, the solubility kinetic in series [6] turned out to be 17 µg/mL (≈ 40.4 µM). In series [7], this molecule registered a logD of 3.01. Further, the Papp in series [8] was found to be 2.55 ×10⁻⁶ cm/s.
Consider `CCNC(=O)Nc1cccc(-c2n[nH]c([C@H]3CCCCN3C(=O)COc3ccccc3)n2)c1`, for which the negative logarithm of the IC50 (pIC50) was 4.01 in series [1]; 4.24 in series [2]; 4.20 in series [3]; 7.28 in series [4]; 6.09 in series [5]. The solubility kinetic in series [6] worked out at 69 µg/mL (≈ 154 µM). The molecule also yielded a logD in series [7] of 2.84. Further, the Papp in series [8] came to 2.23 ×10⁻⁶ cm/s.
Take `O=C1CCN1c1cccc(-c2n[nH]c([C@H]3CCCCN3C(=O)COc3ccccc3)n2)c1`: the pIC50 in series [1] is under 4.00; in series [2], 4.35; in series [3], 4.13; in series [4] it was 6.94; in series [5] it was 6.50. Also, in series [6], the solubility kinetic turned out to be 33 µg/mL (≈ 76.5 µM). This molecule also yielded a log distribution coefficient (logD) in series [7] of 2.9. Moreover, the Papp in series [8] came out at 2 ×10⁻⁶ cm/s.
